According to US20090263472A1, “ENDOTHELIN RECEPTOR ANTAGONIST DERIVATIVES” (NICOX S.A., priority 2006, published 2009):

Experiments:
[1] = system: isolated rabbit thoracic aorta preparations; assay: Studies on vascular tone: vasorelaxation of noradrenaline-precontracted aortic rings; format: cell-based; settings: for relaxation of precontracted aortic rings (in words): cumulative concentration-response curve, noradrenaline 1 μM precontraction
[2] = system: spontaneously hypertensive rats (SHR); assay: Antihypertensive activity in vivo, tail-cuff systolic blood pressure; design: species or system rat; settings: for Δ SBP (Systolic Blood Pressure) 1 hr / Δ SBP (Systolic Blood Pressure) 3 hrs / Δ SBP (Systolic Blood Pressure) 6 hrs: p.o., delta vs own baseline, bosentan 100 mpk, compound of EX. 1 equimolar dose; for Δ SBP (Systolic Blood Pressure) 1 hr: 1 hr after treatment; for Δ SBP (Systolic Blood Pressure) 3 hrs: 3 hrs after treatment; for Δ SBP (Systolic Blood Pressure) 6 hrs: 6 hrs after treatment
Experimental: Ten days prior to the beginning of the experiment, spontaneously hypertensive rats (SHR) are trained daily for the measurement of blood pressure by the tail-cuff method ([…] et Al.; Am. J. Physiol. Heart Circ. Physiol 286: […]-[…], 2004) using model BP-2000 Blood Pressure Analysis System from U.Basile (Comerio, VA Italy). Each animal is placed in individuals cages into a warming cupboard (37° C.) for 15 minutes. […] Average of blood pressure values from individual rats are evaluated from 3/5 different consecutive measurements. […] The data are processed both as the absolute value or as a delta between the absolute value and its own baseline.

COc1ccccc1Oc1c(NS(=O)(=O)c2ccc(C(C)(C)C)cc2)nc(-c2ncccn2)nc1OCCOC(=O)CCCO[N+](=O)[O-] [Compound of EX. 1]
EC50 ([1]; concentration producing 50% of maximum relaxation, aortic rings contracted with noradrenaline 1 μM, functional endothelium, read-out: EC50 (μM) ± sem): 33.9 ± 2.5 µM
relaxation of precontracted aortic rings (in words) [1]: able to induce relaxation in a concentration-dependent manner
reduction in blood pressure (in words) ([2]; oral administration): able to induce a clear reduction in blood pressure
Δ SBP (Systolic Blood Pressure) 1 hr [2]: −8 mmHg
Δ SBP (Systolic Blood Pressure) 3 hrs [2]: −18 mmHg
Δ SBP (Systolic Blood Pressure) 6 hrs [2]: −6 mmHg

COc1ccccc1Oc1c(NS(=O)(=O)c2ccc(C(C)(C)C)cc2)nc(-c2ncccn2)nc1OCCO [Bosentan, reference compound]
EC50 (μM) ± sem ([1]; concentration producing 50% of maximum relaxation, aortic rings contracted with noradrenaline 1 μM, functional endothelium): no effect
relaxation of precontracted aortic rings (in words) [1]: did not produce relaxation at any of the concentration tested
Δ SBP (Systolic Blood Pressure) 1 hr [2]: 0 mmHg
Δ SBP (Systolic Blood Pressure) 3 hrs [2]: 6 mmHg
Δ SBP (Systolic Blood Pressure) 6 hrs [2]: −1 mmHg
